What follows are molecules tested against T1, p38 MAP kinase (Homo sapiens, UniProt Q16539) (assay: Inhibition of p-38 (MAP) kinase in vitro assay (transfer of γ-33P from ATP to Myelin Basic Protein)). Conditions: phosphorylated recombinant p38 MAP kinase, MBP substrate, γ-33P-ATP, 30° C.; read-out: p-38 inhibitory activity, IC50.
T1 construct: made in house; host or cells: E. coli (co-expressed with SEK-1 and MEKK)
Assay type: biochemical
Method: Inhibition Of p-38 (MAP) Kinase . . . In Vitro Assay
The p-38 MAP kinase inhibitory activity of compounds of this invention in vitro was determined by measuring the transfer of the γ-phosphate from γ-^33P-ATP by p-38 kinase to Myelin Basic Protein (MBP), using the a minor modification of the method described in Ahn, N. G.; et al. J. Biol. Chem. Vol. 266(7), 4220-4227, (1991).
The phosphorylated form of the recombinant p38 MAP kinase was expressed with SEK-1 and MEKK in E. Coli and then purified by affinity chromatography using a Nickel column.
The phosphorylated p38 MAP kinase was diluted in kinase buffer (20 mM 3-(N-morpholino)propanesulfonic acid, pH 7.2, 25 mM β-glycerol phosphate, 5 mM ethylene glycol-bis (beta-aminoethyl ether)-N,N,N′,N′-tetraacetic acid, 1 mM sodium vanadate, 1 mM dithiothreitol, 40 mM magnesium chloride). Test compound dissolved in DMSO or only DMSO (control) was added and the samples were incubated for 10 min at 30° C. The kinase reaction was initiated by the addition of a substrate cocktail containing MBP and γ-^33P-ATP. After incubating for an additional 20 min at 30° C., the reaction was terminated by adding 0.75% phosphoric acid. The phosphorylated MBP was then separated from the residual γ-^33P-ATP using a phosphocellulose membrane (Millipore, Bedford, Mass.) and quantitated using a scintillation counter (Packard, Meriden, Conn.).
Compounds of the invention were active in this assay. The p-38 inhibitory activities (expressed as IC50, the concentration causing 50% inhibition of the p-38 enzyme being assayed) of some compounds of the invention are: […]

T1 sequence (Q16539 whole entry): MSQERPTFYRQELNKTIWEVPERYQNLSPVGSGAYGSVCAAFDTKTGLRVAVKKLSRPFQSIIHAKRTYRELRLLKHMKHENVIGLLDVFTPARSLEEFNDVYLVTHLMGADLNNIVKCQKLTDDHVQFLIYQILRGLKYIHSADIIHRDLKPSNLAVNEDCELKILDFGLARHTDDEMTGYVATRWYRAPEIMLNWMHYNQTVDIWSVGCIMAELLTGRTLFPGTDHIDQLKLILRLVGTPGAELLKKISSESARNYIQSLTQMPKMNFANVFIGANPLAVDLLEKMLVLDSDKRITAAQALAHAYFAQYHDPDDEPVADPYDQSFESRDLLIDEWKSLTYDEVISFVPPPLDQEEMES

| IC50 [nM] | SMILES |
| --- | --- |
| 164 | Nc1c(C(=O)c2ccccc2)cc(-c2cccnc2)n1-c1ccc(F)cc1 [Cpd 1] |
| 169 | COc1cccc(C(=O)c2cc(-c3cccnc3)n(-c3ccc(F)cc3)c2N)c1 [Cpd 2] |
| 468 | Nc1c(C(=O)c2cccc(O)c2)cc(-c2cccnc2)n1-c1ccc(F)cc1 [Cpd 3] |
| 120 | Nc1c(C(=O)c2cccc(OC[C@H](O)CO)c2)cc(-c2cccnc2)n1-c1ccc(F)cc1 [Cpd 4] |

Reference: patent publication US6696471B2, “Aminopyrrole compounds” (Syntex (U.S.A.) LLC, priority 2001, dated 2004)
